The record followed here is patent publication US10420761B2, “Allosteric inhibitors of thymidylate synthase” (UNIVERSITY OF FLORIDA RESEARCH FOUNDATION, INCORPORATED, priority 2013, dated 2019).

Each structure is given as a SMILES string. Where two headings read alike, the source gives them in different places.

As usually defined, the GI50 is the concentration that inhibits growth by half.

Data set [1] deals with small cell lung cancer cell line H1607. The data set is described as follows: MTS cell viability assay, H1607. It is filed as cell-based. To be noted: Homo sapiens, SCLC, 72-hour incubation, unit inferred. Here is the method:
(§1) Antiproliferative effects of 27 novel TS inhibitors were tested by MTS assay (Promega) in human cancer cell lines representing several major tumor types known to overexpress TS including lung, cervical, pancreatic and hematopoietic tumors. Six compounds (S, U, P, M, G and J) reduced cell viability by more than 40% in both human cervical cancer HeLa (FIG. 6) and myelogenous leukemia K562 cell lines (FIG. 7).
(§2) Complete dose response relationships for five most promising compounds (P, U, S, M and G) have been established in pancreatic neuroendocrine cancer, pancreatic ductal cancer and small cell lung cancer cell lines (Table 3). […] In pancreatic neuroendocrine tumors Bon1 and CM—the range was larger with GI50 values within 0.1-100 μM (FIGS. 10, 11). Such discrepancy in response to drugs between Bon1 and CM cells can be explained at least in part by different tumor type of these cells. CM cells were derived from insulinoma, a typical beta cell tumor that secrets insulin while Bon cells are carcinoid tumors derived from lymph nodes that produce serotonin.
(§3) 27 top scoring compounds that were identified by in silico screening were tested in human cancer cell lines. Cancer cell lines used for inhibitor testing were maintained under 70% confluency in appropriate cell culture medium (typically DMEM, supplemented with 10% FBS, and 1% pen-strep). Small molecule compounds were obtained from NCI DTP, resuspended in DMSO to generate 50 mM stocks and stored in the dark. In all experiments, fresh compound preparations were used whenever possible and no more than 2 freeze-thaw cycles were allowed for all drug tested. Cells were seeded in 96-well plates in quadruplicates (4 wells/condition) at 4000 cells/well. Compound solutions were freshly prepared in the appropriate cell culture medium and were added the following morning to the cells. After 72-hour incubation with the compound, cell proliferation was measured by MTS assays (Promega) and compared to that of the untreated cells or control drug, such as 5-FU or pemetrexed. Dose-response parameters were determined by plotting percent cell proliferation after treatment from at least eight different compound concentrations and by using non-linear regression fit (4-parameter dose-response) in Sigmaplot. All results shown are representative of at least 3 independent experiments.

For data set [2], the system named is small cell lung cancer cell line H1048. The data set is described as follows: MTS cell viability assay, H1048. As to conditions: Homo sapiens, NCI-H1048. The class given is cell-based. The procedure: as §1, §2, §3
Background: Tetrazolium assays rely on reduction of a dye to a coloured formazan, in cell work by metabolically active cells.

In data set [3] the test system is pancreatic neuroendocrine cell line CM (insulinoma). Put plainly: MTS cell viability assay, CM. The class given is cell-based. The procedure: as §1, §2, §3
In data set [4] the test system is pancreatic neuroendocrine cell line Bon1. The data set is described as follows: MTS cell viability assay, Bon-1. The class given is cell-based. Here is the method:
as §1, §2, §3

The subject of data set [5] is pancreatic ductal adenocarcinoma cell line Miapaca-2. The data set is described as follows: MTS cell viability assay, MiaPaca-2. The class given is cell-based. As to conditions: Homo sapiens, MIA PaCa-2, PDAC, 72-hour incubation, unit inferred. The procedure: as §1, §2, §3
Data set [6] relates to pancreatic ductal adenocarcinoma cell line Panc-1. The data set is described as follows: MTS cell viability assay, Panc-1. The class given is cell-based. As to conditions: Homo sapiens, PDAC, 72-hour incubation, unit inferred. The procedure:
as §1, §2, §3

The subject of data set [7] is mouse histiocytic sarcoma cell line 5278mHS (p16 deletion, activated hTS). Put plainly: MTS cell viability assay, mouse histiocytic sarcoma. It is filed as cell-based. The procedure:
(§4) We also tested the compounds S, U and P in mouse histiocytic sarcoma cell line that was derived from genetically engineered mouse model with p16 deletion and activated hTS overexpression. […] Dose-response curves and GI50 values for all compounds tested can be found in Table 3 and FIGS. 8-13.
as §3

The subject of data set [8] is human cancer cell lines. Put plainly: MTS cell viability assay, statements over several cell lines. The class given is cell-based. To be noted: for GI50: Homo sapiens. The procedure:
as §1, §2, §4, §3

Data set [9] in a line: in vivo. The procedure:
(§5) SCID immunodeficient mice were i.p. injected daily for 3 weeks and kept under observation for one additional week. Animals' weights were measured daily and the data is presented as the percentage of weight change from day 1 of treatment to day 28 at the termination of the experiment (Table 4). FVB.129 immunocompetent mice were i.p. injected daily for 2 weeks and kept under observation for one additional week. Animals' weights were measure daily and the data is presented as the percentage of weight change from day 1 of treatment to day 21 at the termination of the experiment (Table 5).
as §5, with “The SCID immunodeficient” for “SCID immunodeficient”, “the data are presented as” for “the data is presented as”, “(Table 4). […] The FVB.129 immunocompetent” for “(Table 4). FVB.129 immunocompetent”, “weights were measured daily and” for “weights were measure daily and”

Data set [10] is classed as in vivo. The procedure: as §5, with “To establish the maximum tolerated dose (MTD) for most promising new inhibitors, both immunodeficient SCID and immunocompetent FVB.129 mice were treated daily with compound S and methylated version of compound S at 12.5, 50, and 100 MKG (mg/kg) by i.p. injection (Tables 4 and 5). SCID” for “SCID”
The SCID immunodeficient mice were i.p. injected daily for 3 weeks and kept under observation for one additional week. Animals' weights were measured daily and the data are presented as the percentage of weight change from day 1 of treatment to day 28 at the termination of the experiment (Table 4). The MTD for SCID mice for both compounds was 50 MKG. The FVB.129 immunocompetent mice were i.p. injected daily for 2 weeks and kept under observation for one additional week. Animals' weights were measured daily and the data are presented as the percentage of weight change from day 1 of treatment to day 21 at the termination of the experiment (Table 5). […] Thus, we have identified a derivative of compounds S that is less toxic to immunocompetent FVB.129 mice.

Setting [11] is: SCLC, 72-hour incubation, MTS, unit inferred, read-out: GI50 H1048.
The mark [12] stands for this setting: PNET, 72-hour incubation, MTS, unit inferred, read-out: GI50 CM.
The mark [13] stands for this setting: PNET, 72-hour incubation, MTS, unit inferred, read-out: GI50 Bon-1.
Where [14] appears, read: mouse histiocytic sarcoma cell line, range over compounds S, U and P, read-out: GI50 values from.
The mark [15] stands for this setting: mouse histiocytic sarcoma, MTS, unit inferred, read-out: GI50 5278mHS.
Setting [16] is: NCI-H1048, range over small cell lung cancer cell lines H1607 and H1048 and the five compounds, read-out: GI50 values in the range.
[17] abbreviates: range over pancreatic ductal adenocarcinoma cell lines Miapaca-2 and Panc-1 and the five compounds, read-out: GI50 values between.
The mark [18] stands for this setting: up to, over the tested cell lines.

Take `O[C@@H](c1cc(C(F)(F)F)nc2c(C(F)(F)F)cccc12)C1CCCCN1` (stereo partly drawn) [P, (1S)-(2,8-bis(trifluoromethyl)quinolin-4-yl)(piperidin-2-yl)methanol]: the GI50 turned out to be 8.6 µM in [1]; 16 µM in data set [2] (setting [11]); 16 µM in [3] (setting [12]); 7.6 µM in data set [4] (setting [13]); 7 µM in data set [5]; 8.4 µM in [6]. In addition, the GI50 in data set [7] (setting [14]) was 0.4 to 20 µM; in data set [7] (setting [15]), 2.3 µM; in data set [8] (setting [16]), 0.09 to 29 µM; in data set [8] (setting [17]) it was 0.5 to 24 µM.

`CCc1nc(N)nc(N)c1-c1ccc(N(C)Cc2ccccc2)c([N+](=O)[O-])c1` [Compound S, 5-[4-[benzyl(methyl)amino]-3-nitrophenyl]-6-ethylpyrimidine-2,4-diamine]: the GI50 in data set [1] amounted to 8.2 µM; in data set [2] (H1048 (SCLC), read-out: GI50), 0.096 µM; in data set [2] (setting [11]), 0.096 µM; in data set [3] (CM (insulinoma), read-out: GI50), 0.093 µM; in data set [3] (setting [12]), 0.093 µM; in data set [4] (Bon1 cells, read-out: GI50), 100 µM. Further, the GI50 is 100 µM in data set [4] (setting [13]); 0.48 µM in data set [5]; 0.93 µM in data set [6]; 0.4 to 20 µM in data set [7] (setting [14]); 0.42 µM in data set [7] (setting [15]); 0.09 to 29 µM in [8] (setting [16]). Also, in [8] (setting [17]), the GI50 was in the range of 0.5 to 24 µM. The “fold lower GI50 than 5-FU” value in data set [8] (setting [18]) is reported as “up to 169 fold”. For the same molecule, the “fold lower GI50 than pemetrexed” value in data set [8] (setting [18]) is recorded as “up to 416 fold”. In data set [9] (SCID mice, 100 MKG i.p. daily, single mice), the “animal found dead, D2” value is on record as “FDN”. Moreover, the MTD at 3 weeks in data set [9] (SCID, mouse, in vivo, ip, MTD) was at least 50 mg/kg. For the same molecule, in data set [10] (FVB.129 mice, 50 MKG i.p. daily, single mice), the “animal found dead, D6” value is on record as “FDN”. Further, in data set [10] (FVB.129 mice, 100 MKG i.p. daily, single mice), the “animal found dead, D5” value is reported as “FDN”. The “day after treatment at which animals died” value in data set [10] (FVB.129, mouse, in vivo, ip, 2 weeks) was 6 days.

In the case of `COc1ccc(Cc2c[nH]cc3c(=O)c(OC)ccc2-3)cc1O` [Compound M, 4-(3-hydroxy-4-methoxybenzyl)-7-methoxyisoquinolin-8(2H)-one], the GI50 stood at 2.6 µM in data set [1]; 16 µM in data set [2] (setting [11]); 29 µM in [3] (setting [12]); 26 µM in data set [4] (setting [13]); 24 µM in data set [5]; 15 µM in data set [6]. The values for the GI50 in data set [8] (setting [16]) and in [8] (setting [17]) were 0.09 to 29 µM and 0.5 to 24 µM, respectively.

As to `CN(Cc1ccoc1)Cc1nnc(SCCOc2ccccc2)n1C` [Compound G, 1-(furan-3-yl)-N-methyl-N-((4-methyl-5-((2-phenoxyethyl)thio)-4H-1,2,4-triazol-3-yl)methyl)methanaminium], the GI50 in data set [1] is 29 µM; in data set [2] (setting [11]) it was 4.3 µM; in data set [3] (setting [12]), 32 µM; in data set [4] (setting [13]) it was 0.39 µM; in data set [5], 9.7 µM; in [6] it was 15 µM. Also, the GI50 is 0.09 to 29 µM in data set [8] (setting [16]) and 0.5 to 24 µM in data set [8] (setting [17]).

As to `O=c1[nH]cc(F)c(=O)[nH]1` [Compound 5-FU, 5-fluorouracil, reference compound], the GI50 in data set [1] was found to be 36 µM; in data set [2] (setting [11]), 2.3 µM; in [3] (setting [12]) it was 16 µM; in data set [4] (setting [13]) it was 7.6 µM; in [5], 8.1 µM; in data set [6] it was 11 µM.

For `Nc1nc2[nH]cc(CCc3ccc(C(=O)N[C@@H](CCC(=O)O)C(=O)O)cc3)c2c(=O)[nH]1` [Pemetrexed, pemetrexed, reference compound], the 50% growth inhibitory concentration (GI50) in [1] was over 200 µM; in [2] (setting [11]), 0.13 µM; in [3] (setting [12]), 0.087 µM; in data set [4] (setting [13]), over 200 µM; in data set [5], over 200 µM; in [6], over 200 µM.

Regarding `CCN(CC)C1=CC(=O)/C(=N/Nc2cc(Br)ccn2)C=C1` [U, (E)-6-(2-(4-bromopyridin-2-yl)hydrazono)-3-(diethylamino)cyclohexa-2,4-dienone], the GI50 in data set [1] was found to be 2.5 µM; in [2] (setting [11]), 3.1 µM; in [3] (setting [12]) it was 13 µM; in data set [4] (setting [13]) it was 2.4 µM; in data set [5], 12 µM; in [6] it was 1.3 µM. Moreover, the GI50 in [7] (setting [14]) is 0.4 to 20 µM; in data set [7] (setting [15]), 21 µM; in data set [8] (setting [16]), 0.09 to 29 µM; in [8] (setting [17]), 0.5 to 24 µM.
